# Results as given in PMC6277555, “Short Symmetric-End Antimicrobial Peptides Centered on β-Turn Amino Acids Unit Improve Selectivity and Stability” (Frontiers in Microbiology, 2018).
# No end group written: not given here.
# Columns and labels:
# [1] = tested on: S. aureus ATCC 29213; assay type: cell-based, Staphylococcus aureus
# Experimental: (§1) The minimal inhibitory concentration (MIC) was determined according to a previously described method ([Chou et al., 2016]). Bacteria were cultured overnight to mid-log phase in MHB at 37°C and then diluted to give final concentrations ranging from 2 × 10^5 to 7 × 10^5 CFU/mL. Then, 50 μL of serial twofold dilutions of the peptides were added to each well in 96-well microtiter plates with a mixed solution containing 0.01% acetic acid and 0.2% bovine serum albumin (BSA, Sigma) was used to dissolve and dilute the peptides. Then, equal amounts of bacterial aliquots were incubated with the above peptide solution for 18-24 h at 37°C. The experiment was performed in triplicate using three replicates for each peptide and each bacterium. The broth was employed as a negative control and the broth with microbial cells was used as a positive control. The lowest concentration of peptide that prevented visible turbidity was defined as the MIC. The condition sensitivity of peptides was tested in an MIC assay in different environments, including salt sensitivity, thermal sensitivity and different pH values similar to our previous method ([[…] et al., 2008]; [Ma et al., 2012]). […] For the heat resistance experiments, the peptides were incubated at 100°C for 30 min and cooled on ice for 10 min. […] The determination methods for these MIC assays were same as described above. To test the effects of serum on the antimicrobial activities of the peptides, human serum was dissolved in MHB to reach final concentrations of 25 and 50%. The determination methods for these MIC assays were same as described above.
# [2] = tested on: B. subtilis CMCC 63501; assay type: cell-based, Bacillus subtilis
# Experimental: (§2) The minimal inhibitory concentration (MIC) was determined according to a previously described method ([Chou et al., 2016]). Bacteria were cultured overnight to mid-log phase in MHB at 37°C and then diluted to give final concentrations ranging from 2 × 10^5 to 7 × 10^5 CFU/mL. Then, 50 μL of serial twofold dilutions of the peptides were added to each well in 96-well microtiter plates with a mixed solution containing 0.01% acetic acid and 0.2% bovine serum albumin (BSA, Sigma) was used to dissolve and dilute the peptides. Then, equal amounts of bacterial aliquots were incubated with the above peptide solution for 18–24 h at 37°C. The experiment was performed in triplicate using three replicates for each peptide and each bacterium. The broth was employed as a negative control and the broth with microbial cells was used as a positive control. The lowest concentration of peptide that prevented visible turbidity was defined as the MIC.
# [3] = tested on: S. typhimurium ATCC 7731; assay type: cell-based, Salmonella entericaserovar Typhimurium
# Experimental: as §2
# [4] = tested on: E. coli ATCC25922; assay type: cell-based, Escherichia coli
# Experimental: as §1
# [5] = tested on: S. faecalis ATCC 29212; assay type: cell-based, Streptococcus faecalis
# Experimental: as §2
# [6] = tested on: E. coli UB1005; assay type: cell-based, Escherichia coli
# Experimental: as §2
# [7] = tested on: B. pyocyaneum ATCC 27853; assay type: cell-based, Bacterium pyocyaneum
# Experimental: as §2
# [8] = tested on: S. pullorum C79-13; assay type: cell-based, Salmonella pullorum
# Experimental: as §2
# [9] = tested on: S. aureus ATCC 43300; assay type: cell-based, Staphylococcus aureus
# Experimental: as §2
# [10] = tested on: S. epidermidis ATCC 12228; assay type: cell-based, Staphylococcus epidermidis
# Experimental: as §2
# [11] = tested on: hRBCs; test: Hemolytic activity; assay type: cell-based, human; details: peptide concentration resulting in 5% hemolysis of hRBCs; PBS, 1 h, 37°C
# Experimental: (§3) The hemolytic activity of the peptides was detected using a previously described modified method ([Wang et al., 2015]). One milliliter of fresh hRBCs was obtained from a healthy donor (Zhihua Wang, Harbin, China) in a polycarbonate tube containing heparin. The collected hRBCs were centrifuged at 1000 × g for 5 min at 4°C and resuspended in PBS buffer (pH 7.2). The hRBCs were washed three times and then incubated with an equal volume of the respective peptide dissolved in PBS for 1 h at 37°C. Then, the hRBC suspension was placed into a 96-well microtiter plater with 50 μL of tested peptide solution at different concentrations and the mixture was incubated for 1 h at 37°C. […] The minimum hemolytic concentrations (MHCs) were defined as the peptide concentrations resulting in 5% hemolysis.
# [12] = tested on: Gram-negative and Gram-positive bacterial strains; test: Geometric mean of MICs and therapeutic index; assay type: cell-based; details: for GM (geometric mean of the MIC values): all ten tested strains; for Therapeutic index: from MHC and GM
# Experimental: as §3, §2
# [13] = RP-HPLC retention time as measure of relative hydrophobicity; assay type: physicochemical; details: analytical RP-HPLC; hydrophobicity increases with retention time
# Experimental: These peptides' […] identified via matrix-assisted laser desorption/ionization time-of-flight mass spectrometry (MALDI-TOF MS, Linear Scientific Inc., United States), using α-cyano-4-hydroxycinnamic acid as the matrix. […] Quantitative peptides were dissolved in deionized water and stored at -20°C before the assessments. The rest of the peptides were stored as powders at -20°C to prevent peptide degradation. The structures and molecular weights of the peptides were verified by MALDI-TOF MS. […] The relative hydrophobicity of the symmetric-end peptides was reliably reflected by their different HPLC retention times, and the hydrophobicity increased with increasing HPLC retention times ([Lee et al., 2014]; [Zhu et al., 2014]). The HPLC retention times for […]
substance,measurement,setting,value
IHFKWRRWKFHI-NH2 [Qna],MIC,[1]; ATCC 29213,32 µM
same,MIC,[2],64 µM
same,MIC,[3],32 µM
same,MIC,[4]; ATCC25922,32 µM
same,MIC,[5],64 µM
same,MIC,[6],16 µM
same,MIC,[7],32 µM
same,MIC,[8],32 µM
same,MIC,[9],32 µM
same,MIC,[10],32 µM
same,MHC (minimum hemolytic concentration),[11],>128 µM
same,GM (geometric mean of the MIC values),[12],34.3 µM
same,Therapeutic index,[12],7.5
IHKFWRGGRWFKHI-NH2 [GG],MIC,[1]; ATCC 29213,16 µM
same,MIC,[2],16 µM
same,MIC,[3],64 µM
same,MIC,[4]; ATCC25922,8 µM
same,MIC,[5],32 µM
same,MIC,[6],8 µM
same,MIC,[7],16 µM
same,MIC,[8],8 µM
same,MIC,[9],32 µM
same,MIC,[10],32 µM
same,Retained time (HPLC retention time),[13],10.24 min
IHKFWRPGRWFKHI-NH2 [PP],MIC,[1]; ATCC 29213,16 µM
same,"MIC, CaCl2",[1]; ATCC 29213,32 µM
same,"MIC, Control",[1]; ATCC 29213,16 µM
same,"MIC, FeCl3",[1]; ATCC 29213,8 µM
same,"MIC, Heat (100°C)",[1]; ATCC 29213,16 µM
same,"MIC, KCl",[1]; ATCC 29213,16 µM
same,"MIC, MgCl2",[1]; ATCC 29213,16 µM
same,"MIC, NH4Cl",[1]; ATCC 29213,8 µM
same,"MIC, NaCl",[1]; ATCC 29213,128 µM
same,"MIC, ZnCl2",[1]; ATCC 29213,4 µM
same,"MIC, pH 4.0","[1]; ATCC 29213, pH 4",16 μM
same,"MIC, pH 6.0","[1]; ATCC 29213, pH 6",16 μM
same,"MIC, pH 8.0","[1]; ATCC 29213, pH 8",16 μM
same,"MIC, pH 10.0","[1]; ATCC 29213, pH 10",16 μM
same,MIC,[2],8 µM
same,MIC,[3],8 µM
same,MIC,[4]; ATCC25922,8 µM
same,"MIC, CaCl2",[4]; ATCC25922,4 µM
same,"MIC, Control",[4]; ATCC25922,8 µM
same,"MIC, FeCl3",[4]; ATCC25922,4 µM
same,"MIC, Heat (100°C)",[4]; ATCC25922,8 µM
same,"MIC, KCl",[4]; ATCC25922,4 µM
same,"MIC, MgCl2",[4]; ATCC25922,2 µM
same,"MIC, NH4Cl",[4]; ATCC25922,2 µM
same,"MIC, NaCl",[4]; ATCC25922,8 µM
same,"MIC, ZnCl2",[4]; ATCC25922,2 µM
same,"MIC, pH 4.0","[4]; ATCC25922, pH 4",8 μM
same,"MIC, pH 6.0","[4]; ATCC25922, pH 6",8 μM
same,"MIC, pH 8.0","[4]; ATCC25922, pH 8",16 μM
same,"MIC, pH 10.0","[4]; ATCC25922, pH 10",8 μM
same,MIC,[5],8 µM
same,MIC,[6],4 µM
same,MIC,[7],4 µM
same,MIC,[8],4 µM
same,MIC,[9],16 µM
same,MIC,[10],16 µM
same,MHC (minimum hemolytic concentration),[11],>128 µM
same,GM (geometric mean of the MIC values),[12],8.0 µM
same,Therapeutic index,[12],32.0
